≈ marks a conversion by molar mass, not a printed value. Counter-ions that a name gives are not always drawn. Like-named read-outs stand apart in the source and are kept apart here. Where a SMILES comes first, the peptide text is derived from it.
Assays:
[1] = test system: MRSA USA300; assay: microbe, parasite or virus in culture; conditions: for MIC: Staphylococcus aureus
Procedure: The interaction of [R4W4], melittin, and vancomycin with LTA in the presence of MRSA was determined using a microbroth dilution assay. Two-fold serial dilution was used to achieve a 100 μL final concentration of the antibacterial agents in a 96 microplate well. A 360 μL S. aureus LTA (Sigma Aldrich stock 5 mg/mL) was added to 17.64 mL MHB containing MRSA (5 x 10^5 CFU/mL) to achieve the final concentration of S. aureus LTA 100 μg/mL. Then, 100 μL aliquots of MHB (MRSA (5 × 10^5 CFU/mL) and 100 μg/mL S. aureus LTA) were added to the 96 microtiter wells containing the antibacterial agents. The microplate was incubated overnight at 37 °C to obtain the MICs. Controls were bacteria grown in the presence of LTA alone and in MHB alone.

[2] = test system: C. difficile 9689; assay: microbe, parasite or virus in culture; type: cell-based, Clostridioides difficile; conditions: for MBC/MIC: C. difficile ATCC 9689, stool isolate
Procedure: (§1) To determine whether the antibacterial activity of [R4W4] is bacteriostatic or bactericidal against clinical isolates of multidrug-resistant bacterial isolates, MIC and MBC were determined using the microbroth dilution method. Bacteriostatic activity was defined as a ratio of the MBC/MIC greater than four and bactericidal activity as MBC/MIC ratio ≤ 4 [33]. We added aliquots of test samples (256 μg/mL concentration of [R4W4] or vancomycin as a control prepared in TSB) to the first well of microplates. MHB media was added to the remaining wells. Two-fold serial dilutions were performed, starting with the highest drug concentration in well 1, and the dilution process continued. A bacterial aliquot of 1/150 dilution was prepared with a 0.5 McFarland standard solution from an overnight culture of the tested bacteria isolate. Bacteria were added to the microplate and placed into wells with the drug dilutions. The microplates were incubated overnight for 24 h at 37 °C. [R4W4] was synthesized and purified, as reported earlier.

[3] = test system: MRSA LAC; assay: microbe, parasite or virus in culture; type: cell-based, Staphylococcus aureus; conditions: for MIC: Staphylococcus aureus, MRSA
Procedure: The effects of cations on the antimicrobial activity of [R4W4] were determined against MRSA using vancomycin as a control. The bacteria aliquots were treated with MHB media containing the final concentration of sodium chloride (NaCl) (150, 75, 37.5, and 18.75 mM), calcium chloride (CaCl2) (8, 4, 2, and 1 mM), and ferric chloride (FeCl3) (1, 4, and 8 µM) in 96 well microplates. The MIC of [R4W4] and vancomycin were determined to determine whether there were changes in the MIC values when treated with different salt concentrations.

[4] = test system: MRSA LAC; conditions: for % Reduction in viable bacteria / Lethal rate (LR), log10 reduction: MRSA LAC in MHB; for viable bacteria at 26 h: MRSA LAC; for % reduction in viable bacteria over 1 × MIC, 2 × MIC and 4 × MIC: MRSA in MHB, range over the three concentrations
Procedure: The MRSA Los Angeles County (LAC) USA300 strain was cultured from −80 °C freezer stock and inoculated on an agar plate overnight. Two bacteria colonies were inoculated in MH broth overnight at 37 °C with shaking at 200 rpm. An aliquot was added to normal saline to achieve a 0.5 McFarland Standard suspension and then diluted 1:150 with MHB. The bacteria sample was plated on an agar plate at time zero. The test samples were prepared by adding [R4W4] or vancomycin to bacteria to achieve the final sample concentration of (1 × MIC, 2 × MIC, 4 × MIC) using media without antibacterial agents as positive control.
[…] The samples were diluted to minimize excessive CFU counts. The inoculated plates were incubated at 37 °C overnight. The surviving organisms were determined by counting colonies as CFU/plate. The average duplicate counts were multiplied by the dilution factors to arrive at CFU/mL. The microbial reduction was calculated by converting the count to log10 scale. The Log CFU/mL was plotted against time for different antibacterial concentrations.

[5] = test system: MRSA LAC USA300; assay: Surface charge neutralization by zeta potential; type: cell-based, Staphylococcus aureus; conditions: for zeta potential of MRSA after treatment: agent at 16 μg/mL (4 × MIC of [R4W4]), HEPES pH 7.4, 150 mM NaCl, 25 °C, mean of triplicate, untreated −31 ± 0.88 mV
Procedure: Stock cultures of the MRSA strain from −80 °C were inoculated on MHB agar plates at 37 °C overnight. Two isolated colonies were inoculated in 6 mL MHB broth and allowed to grow overnight with shaking at 225 rpm. A 100 µL bacteria aliquot was added to a 5 mL fresh MHB, and the suspension was incubated to grow for 2 h at 37 °C to achieve a final bacteria concentration of ~3 × 10^8 CFU/mL as (A 600 ~0.1). The bacterial suspension was diluted using fresh MHB to 3 × 10^5 CFU/mL. The bacterial suspension was centrifuged at 11,400× g for 10 min and washed twice using 10 mM HEPES buffer, pH 7.4, containing 150 mM NaCl (normal saline).
An amount of 100 µLs of test samples was added to 900 µL of the bacterial aliquots using a positive buffer without test samples.
Meanwhile, the Malvern Zetasizer Nano was set to read samples at 25 °C. The bacterial suspension was dispensed into disposable zeta cells with gold electrodes and allowed to equilibrate for 15 min at 25 °C. The zeta potential value for each sample was calculated from the measured value of electrophoretic mobility using the Smuluchowski equation.

[6] = test system: MRSA (vancomycin hetero-non-susceptible) MU3; assay: microbe, parasite or virus in culture; type: cell-based, Staphylococcus aureus
Procedure: as §1

[7] = test system: MRSA Clin 5; assay: microbe, parasite or virus in culture; type: cell-based, Staphylococcus aureus; conditions: for MBC/MIC: MRSA Clin 5, lung isolate
Procedure: as §1

[8] = test system: MRSA Mec III; assay: microbe, parasite or virus in culture; type: cell-based, Staphylococcus aureus; conditions: for MBC/MIC: MRSA Mec III, wound isolate
Procedure: as §1

[9] = test system: MRSA Mec V; assay: microbe, parasite or virus in culture; type: cell-based, Staphylococcus aureus; conditions: for MBC/MIC: MRSA Mec V, wound isolate
Procedure: as §1

[10] = test system: Enterococcus faecium (VRE); type: cell-based; conditions: urine isolate
Procedure: as §1

[11] = test system: bacterial isolates (nine MRSA, B. subtilis, C. difficile, VRE); type: cell-based; conditions: for bacteriostatic or bactericidal (Pankey's definition, MBC/MIC ≤ 4 bactericidal): all tested bacterial isolates; for MBC increase over MIC values: all the strains tested
Procedure: as §1

[12] = Staphylococcus aureus, MRSA, 24 h

With N=C(N)NCCC[C@@H]1NC(=O)[C@H](CCCNC(=N)N)NC(=O)[C@H](CCCNC(=N)N)NC(=O)[C@H](Cc2c[nH]c3ccccc23)NC(=O)[C@H](Cc2c[nH]c3ccccc23)NC(=O)[C@H](Cc2c[nH]c3ccccc23)NC(=O)[C@H](Cc2c[nH]c3ccccc23)NC(=O)[C@H](CCCNC(=N)N)NC1=O [[R4W4]] (cyclo(RRRRWWWW)) the “MIC in the presence of LTA” value ([1]; MRSA USA300, 100 μg/mL S. aureus LTA in MHB, overnight 37 °C, duplicate) was 8 µg/mL, the “MIC in the absence of LTA” value ([1]; MRSA USA300, MHB, overnight 37 °C, duplicate) was 8 µg/mL and the MBC ([2]; 9689, 24 h) was 4 µg/mL (≈ 2.92 µM). For the same molecule, the MIC ([2]; 9689, 24 h) was 2 µg/mL (≈ 1.46 µM), the MBC/MIC [2] was 2 and the “MIC in the presence of sodium chloride” value ([3]; LAC) was 6 to 8 µg/mL. The “MIC under normal physiological conditions” value ([3]; MRSA LAC, MHB without added salt) was 4 µg/mL, the “MIC in the presence of ferric chloride” value ([3]; MRSA LAC, FeCl3 1, 2, 4 and 8 μM) was “increases proportionally with the concentration of ferric chloride” and the “% Reduction in viable bacteria” value ([4]; 1 × MIC, 100 × (1 − 10^−LR)) was 99.67%. For the same molecule, the “% Reduction in viable bacteria” value ([4]; 2 × MIC) was 99.78%, the “Lethal rate (LR), log10 reduction” value ([4]; 2 × MIC) was 2.65 and the “% Reduction in viable bacteria” value ([4]; 4 × MIC) was 99.87%. For the same molecule, the “Lethal rate (LR), log10 reduction” value ([4]; 4 × MIC) was 2.89, the “viable bacteria at 26 h” value ([4]; 4 × MIC) was “bacteria remaining viable up to 26 h” and the “% reduction in viable bacteria over 1 × MIC, 2 × MIC and 4 × MIC” value [4] was 99.67–99.87%. The “concentration required to achieve neutralization of negative surface charge” value ([5]; 2 × MIC) was 8 µg/mL, the “zeta potential of MRSA after treatment” value [5] was −8.37 mV and the MBC/MIC ([6]; MRSA MU3, lung isolate) was 2. For the same molecule, the MBC ([6]; MRSA MU3, lung isolate, averages of triplicates of three different experiments) was 32 µg/mL (≈ 23.4 µM), the MIC ([6]; vancomycin hetero-non-susceptible) MU3, 24 h) was 16 µg/mL (≈ 11.7 µM) and the MBC ([7]; Clin 5, 24 h) was 32 µg/mL (≈ 23.4 µM). The MIC ([7]; Clin 5, 24 h) was 16 µg/mL (≈ 11.7 µM), the MBC/MIC [7] was 2 and the MBC/MIC [8] was 2. It also gave an MBC ([8]; Mec III, 24 h) of 8 µg/mL (≈ 5.84 µM), an MIC ([8]; Mec III, 24 h) of 4 µg/mL (≈ 2.92 µM) and an MBC/MIC [9] of 4. The MBC ([9]; Mec V, 24 h) was 64 µg/mL (≈ 46.7 µM), the MIC ([9]; Mec V, 24 h) was 16 µg/mL (≈ 11.7 µM) and the MBC/MIC [10] was 4. The “MIC range, MRSA clinical isolates from the blood” value ([11]; 24 h) was 2 to 4 µg/mL, the “MIC range, MRSA clinical isolates from the lungs” value ([11]; 24 h) was 16 to 32 µg/mL and the “bacteriostatic or bactericidal (Pankey's definition, MBC/MIC ≤ 4 bactericidal)” value [11] was “bactericidal”. The “MBC increase over MIC values” [11] was 2–4 fold.
Work on CN[C@H](CC(C)C)C(=O)N[C@H]1C(=O)N[C@@H](CC(N)=O)C(=O)N[C@H]2C(=O)N[C@H]3C(=O)N[C@H](C(=O)N[C@H](C(=O)O)c4cc(O)cc(O)c4-c4cc3ccc4O)[C@H](O)c3ccc(c(Cl)c3)Oc3cc2cc(c3O[C@@H]2O[C@H](CO)[C@@H](O)[C@H](O)[C@H]2O[C@H]2C[C@](C)(N)[C@H](O)[C@H](C)O2)Oc2ccc(cc2Cl)[C@H]1O [Vancomycin, Vancomycin Hydrochloride, reference compound] yielded an MIC ([1]; read-out: MIC in the absence of LTA) of 2 µg/mL, an MIC ([1]; read-out: MIC in the presence of LTA) of 2 µg/mL and an MBC/MIC [2] of 2. For the same molecule, the MBC ([2]; Clostridioides difficile, ATCC9689) was 1 µg/mL, the MIC ([2]; Clostridioides difficile, ATCC9689, 24 h) was 0.5 µg/mL and the MIC ([3]; read-out: MIC in the presence of calcium chloride) was 0.75 µg/mL. For the same molecule, the MIC ([3]; read-out: MIC in the presence of ferric chloride) was 0.625 to 1.25 µg/mL, the MIC ([3]; read-out: MIC in the presence of sodium chloride) was 1 to 2 µg/mL and the MIC ([3]; read-out: MIC under normal physiological conditions) was 1 µg/mL. The “Lethal rate (LR), log10 reduction” value ([4]; 1 × MIC ([R4W4] 4 µg/mL, vancomycin 1 µg/mL)) was 1.02, the “% Reduction in viable bacteria” value ([4]; 1 × MIC, 100 × (1 − 10^−LR)) was 90.50% and the “% Reduction in viable bacteria” value ([4]; 1 × MIC, 100 × (1 − 10^−LR), listed as vancomycin) was > 90%. For the same molecule, the “% Reduction in viable bacteria” value ([4]; 2 × MIC) was 98.98%, the “Lethal rate (LR), log10 reduction” value ([4]; 2 × MIC) was 1.99 and the “% Reduction in viable bacteria” value ([4]; 4 × MIC) was 99.58%. The “Lethal rate (LR), log10 reduction” value ([4]; 4 × MIC) was 2.37, the “viable bacteria at 26 h” value ([4]; 4 × MIC) was “no viable bacteria were recovered at 26 h” and the “% reduction in viable bacteria over 1 × MIC, 2 × MIC and 4 × MIC” value [4] was 90.50–99.58%. For the same molecule, the “zeta potential of MRSA after treatment” value [5] was −33.03 mV, the MBC/MIC ([6]; MRSA MU3, lung isolate) was 1.5 and the MBC ([6]; Staphylococcus aureus, MRSA) was 3 µg/mL. For the same molecule, the MIC [6, 12] was 2 µg/mL, the MBC/MIC [7] was 1 and the MBC ([7]; Staphylococcus aureus, MRSA) was 2 µg/mL. The MIC [7, 12] was 2 µg/mL, the MBC/MIC [8] was 2 and the MBC ([8]; Staphylococcus aureus, MRSA) was 2 µg/mL. The MIC [8, 12] was 1 µg/mL, the MBC/MIC [9] was 2 and the MBC ([9]; Staphylococcus aureus, MRSA) was 4 µg/mL. For the same molecule, the MIC [9, 12] was 2 µg/mL, the MIC ([10]; microbroth dilution, 24 h, 37 °C, averages of triplicates of three different experiments, N/A = not active) was “not active” and the “bacteriostatic or bactericidal (Pankey's definition, MBC/MIC ≤ 4 bactericidal)” value [11] was “bactericidal”. For the same molecule, the “MBC increase over MIC values” [11] was 2–4 fold.

— publication PMC11201061, “Mechanistic Study of Antimicrobial Effectiveness of Cyclic Amphipathic Peptide [R4W4] against Methicillin-Resistant Staphylococcus aureus Clinical Isolates” (Antibiotics, 2024)
